A word on the IC50: it is the point on the concentration scale where inhibition reaches its midpoint.

Experimental findings from US20240228506A1, “RIPK1 INHIBITORS AND METHODS OF USE” (Merck Sharp & Dohme LLC, priority 2021, published 2024) are described below.

SMILES strings stand for the structures.

This test concerns the target T1, GST-RIPK1 (recombinant GST-RIPK1 kinase domain (residues 1-327)) (Homo sapiens, UniProt Q13546).
T1 construct: recombinant GST-RIPK1 kinase domain (residues 1-327) enzyme; made in house; host or cells: baculovirus-transfected Sf21 insect cells
T1 sequence (Q13546 1-327): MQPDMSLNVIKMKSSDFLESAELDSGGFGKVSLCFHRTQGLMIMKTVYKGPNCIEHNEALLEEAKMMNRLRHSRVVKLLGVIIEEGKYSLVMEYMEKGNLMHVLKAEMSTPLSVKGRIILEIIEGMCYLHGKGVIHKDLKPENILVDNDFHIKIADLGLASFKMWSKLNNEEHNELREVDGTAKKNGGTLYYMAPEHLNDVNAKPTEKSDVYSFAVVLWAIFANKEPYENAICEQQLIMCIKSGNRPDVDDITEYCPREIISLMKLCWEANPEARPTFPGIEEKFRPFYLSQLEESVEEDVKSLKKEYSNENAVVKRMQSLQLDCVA
The test can be described thus: RIPK1-ADP-Glo enzymatic assay. Particulars: 25 nM GST-RIPK1, 300 μM ATP, 3 μM dephosphorylated-MBP; 30 minutes pre-incubation, 150 minutes reaction; ten-point titration. The test is classed as biochemical. The procedure, abridged:
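Ten-point 1:3 titrations from 100000 nM, 1% DMSO, were preincubated 30 min with 25 nM GST-RIPK1 (1-327) before starting with 300 μM ATP plus 3 μM dephosphorylated MBP; 150 min reaction. ADP-Glo luminescence measured ATP-to-ADP conversion; EC50 by four-parameter sigmoidal regression.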
A general note: ADP-Glo turns the ADP formed in a reaction into a luminescent signal.
For `CC(C)(C(=O)N1C[C@@H]2C[C@H]1c1cncc(C#Cc3cncnc3)c1O2)C(F)F` [Compound 2-45, 3,3-difluoro-2,2-dimethyl-1-((2S,5S)-9-(pyrimidin-5-ylethynyl)-2,3-dihydro-2,5-methanopyrido[3,4-f][1,4]oxazepin-4(5H)-yl)propan-1-one], the IC50 is 0.032 µM.

On to `CC(C)(C(=O)N1C[C@@H]2C[C@H]1c1cncc(C#CCc3ccccc3)c1O2)C(F)F` [Compound 2-46, 3,3-difluoro-2,2-dimethyl-1-((2S,5S)-9-(3-phenylprop-1-yn-1-yl)-2,3-dihydro-2,5-methanopyrido[3,4-f][1,4]oxazepin-4(5H)-yl)propan-1-one], for which the IC50 was found to be 0.098 µM.

Regarding `CC(C)(C(=O)N1C[C@@H]2C[C@H]1c1cncc(C#Cc3ccccc3)c1O2)C(F)F` [Compound 2-47, 3,3-Difluoro-2,2-dimethyl-1-((2S,5S)-9-(phenylethynyl)-2,3-dihydro-2,5-methanopyrido[3,4-f][1,4]oxazepin-4(5H)-yl)propan-1-one], the concentration for half-maximal inhibition (IC50) worked out at 0.066 µM.

In the case of `CC(C)(C(=O)N1C[C@@H]2C[C@H]1c1cncc(C#Cc3cccnc3)c1O2)C(F)F` [Compound 2-48, 3,3-difluoro-2,2-dimethyl-1-((2S,5S)-9-(pyridin-3-ylethynyl)-2,3-dihydro-2,5-methanopyrido[3,4-f][1,4]oxazepin-4(5H)-yl)propan-1-one], the half-maximal inhibitory concentration (IC50) was 0.036 µM.

Take `CC(C)(C(=O)N1C[C@@H]2C[C@H]1c1cncc(C#Cc3cnccn3)c1O2)C(F)F` [Compound 2-49, 3,3-difluoro-2,2-dimethyl-1-((2S,5S)-9-(pyrazin-2-ylethynyl)-2,3-dihydro-2,5-methanopyrido[3,4-f][1,4]oxazepin-4(5H)-yl)propan-1-one]: the IC50 was determined as 0.083 µM.

With `O=C(N1C[C@@H]2C[C@H]1c1cncc(C#Cc3cncnc3)c1O2)C12CCC(C(F)(F)F)(CC1)C2` [Compound 2-50, ((2S,5S)-9-(Pyrimidin-5-ylethynyl)-2,3-dihydro-2,5-methanopyrido[3,4-f][1,4]oxazepin-4(5H)-yl)(4-(trifluoromethyl)bicyclo[2.2.1]heptan-1-yl)methanone], the concentration for half-maximal inhibition (IC50) worked out at 0.015 µM.

Regarding `O=C(N1C[C@@H]2C[C@H]1c1cncc(C#Cc3cccnn3)c1O2)C12CCC(C(F)(F)F)(CC1)C2` [Compound 2-51, ((2S,5S)-9-(pyridazin-3-ylethynyl)-2,3-dihydro-2,5-methanopyrido[3,4-f][1,4]oxazepin-4(5H)-yl)(4-(trifluoromethyl)bicyclo [2.2.1]heptan-1-yl)methanone], the concentration for half-maximal inhibition (IC50) came to 0.017 µM.

Take `O=C(N1C[C@@H]2C[C@H]1c1cncc(C#Cc3ccncc3)c1O2)C12CCC(C(F)(F)F)(CC1)C2` [Compound 2-52, ((2S,5S)-9-(pyridin-4-ylethynyl)-2,3-dihydro-2,5-methanopyrido[3,4-f][1,4]oxazepin-4(5H)-yl)(4-(trifluoromethyl)bicyclo [2.2.1]heptan-1-yl)methanone]: the IC50 amounted to 0.03 µM.

For `O=C(N1C[C@@H]2C[C@H]1c1cncc(C#Cc3cnc4ccoc4c3)c1O2)C12CCC(C(F)(F)F)(CC1)C2` [Compound 2-53, ((2S,5S)-9-(furo[3,2-b]pyridin-6-ylethynyl)-2,3-dihydro-2,5-methanopyrido[3,4-f][1,4]oxazepin-4(5H)-yl)(4-(trifluoromethyl)bicyclo [2.2.1]heptan-1-yl)methanone], the 50% inhibitory concentration (IC50) came out at 0.017 µM.

For the compound `O=C(N1C[C@@H]2C[C@H]1c1cncc(C#Cc3cscn3)c1O2)C12CCC(C(F)(F)F)(CC1)C2` [Compound 2-54, ((2S,5S)-9-(thiazol-4-ylethynyl)-2,3-dihydro-2,5-methanopyrido[3,4-f][1,4]oxazepin-4(5H)-yl)(4-(trifluoromethyl)bicyclo [2.2.1]heptan-1-yl)methanone], the half-inhibitory concentration (IC50) stood at 0.018 µM.

As to `Cn1cncc1C#Cc1cncc2c1O[C@H]1C[C@@H]2N(C(=O)C23CCC(C(F)(F)F)(CC2)C3)C1` [Compound 2-55, ((2S,5S)-9-((1-methyl-1H-imidazol-5-yl)ethynyl)-2,3-dihydro-2,5-methanopyrido[3,4-f][1,4]oxazepin-4(5H)-yl)(4-(trifluoromethyl)bicyclo [2.2.1]heptan-1-yl)methanone], the half-maximal inhibitory concentration (IC50) was found to be 0.026 µM.

For `O=C(N1C[C@@H]2C[C@H]1c1cncc(C#CCn3ccnc3)c1O2)C12CCC(C(F)(F)F)(CC1)C2` [Compound 2-56, ((2S,5S)-9-(3-(1H-imidazol-1-yl)prop-1-yn-1-yl)-2,3-dihydro-2,5-methanopyrido[3,4-f][1,4]oxazepin-4(5H)-yl)(4-(trifluoromethyl)bicyclo [2.2.1]heptan-1-yl)methanone], the half-inhibitory concentration (IC50) was determined as 0.023 µM.

As for `O=C(N1C[C@@H]2C[C@H]1c1cncc(C#CCO)c1O2)C12CCC(C(F)(F)F)(CC1)C2` [Compound 2-57, ((2S,5S)-9-(3-hydroxyprop-1-yn-1-yl)-2,3-dihydro-2,5-methanopyrido[3,4-f][1,4]oxazepin-4(5H)-yl)(4-(trifluoromethyl)bicyclo[2.2.1]heptan-1-yl)methanone], the IC50 was 0.078 µM.

Turning to `O=C(N1C[C@@H]2C[C@H]1c1cncc(C#Cc3cccnc3)c1O2)C12CCC(C(F)(F)F)(CC1)C2` [Compound 2-58, ((2S,5S)-9-(pyridin-3-ylethynyl)-2,3-dihydro-2,5-methanopyrido[3,4-f][1,4]oxazepin-4(5H)-yl)(4-(trifluoromethyl)bicyclo [2.2.1]heptan-1-yl)methanone], the IC50 amounted to 0.012 µM.

On to `O=C(N1C[C@@H]2C[C@H]1c1cncc(C#Cc3ccc(F)cc3F)c1O2)C12CCC(C(F)(F)F)(CC1)C2` [Compound 2-59, ((2S,5S)-9-((2,4-difluorophenyl)ethynyl)-2,3-dihydro-2,5-methanopyrido[3,4-f][1,4]oxazepin-4(5H)-yl)(4-(trifluoromethyl)bicyclo[2.2.1]heptan-1-yl)methanone], for which the IC50 is 0.022 µM.

As for `O=C(N1C[C@@H]2C[C@H]1c1cncc(C#Cc3ccccn3)c1O2)C12CCC(C(F)(F)F)(CC1)C2` [Compound 2-60, ((2S,5S)-9-(pyridin-2-ylethynyl)-2,3-dihydro-2,5-methanopyrido[3,4-f][1,4]oxazepin-4(5H)-yl)(4-(trifluoromethyl)bicyclo [2.2.1]heptan-1-yl)methanone], the IC50 turned out to be 0.073 µM.

Consider `O=C(N1C[C@@H]2C[C@H]1c1cncc(C#Cc3cnccn3)c1O2)C12CCC(C(F)(F)F)(CC1)C2` [Compound 2-61, ((2S,5S)-9-(pyrazin-2-ylethynyl)-2,3-dihydro-2,5-methanopyrido[3,4-f][1,4]oxazepin-4(5H)-yl)(4-(trifluoromethyl)bicyclo [2.2.1]heptan-1-yl)methanone], for which the IC50 was 0.022 µM.

As to `Cc1ccc(C#Cc2cncc3c2O[C@H]2C[C@@H]3N(C(=O)C34CCC(C(F)(F)F)(CC3)C4)C2)cn1` [Compound 2-62], the IC50 is 0.017 µM.

As for `Cc1ccncc1C#Cc1cncc2c1O[C@H]1C[C@@H]2N(C(=O)C23CCC(C(F)(F)F)(CC2)C3)C1` [Compound 2-63, ((2S,5S)-9-((4-methylpyridin-3-yl)ethynyl)-2,3-dihydro-2,5-methanopyrido[3,4-f][1,4]oxazepin-4(5H)-yl)(4-(trifluoromethyl)bicyclo [2.2.1]heptan-1-yl)methanone], the IC50 stood at 0.014 µM.
